Measured values published in patent US9861613B2, “GPR142 agonist compounds” (Eli Lilly and Company, priority 2014, dated 2018).
pEC50: −log10 of the molar value.

Assays:
[1] = target: T1, human GPR142 (Homo sapiens, UniProt Q7Z601); experiment: GPR142 agonist effect as measured by IP-1 assay (HTRF), human GPR142; format: cell-based; conditions: HEK293 cells expressing human GPR142, IP-1, Mean±SEM, n=9
T1 construct: expressed in transfected cells; host or cells: HEK293 (G418-selected)
T1 sequence (Q7Z601 1-462): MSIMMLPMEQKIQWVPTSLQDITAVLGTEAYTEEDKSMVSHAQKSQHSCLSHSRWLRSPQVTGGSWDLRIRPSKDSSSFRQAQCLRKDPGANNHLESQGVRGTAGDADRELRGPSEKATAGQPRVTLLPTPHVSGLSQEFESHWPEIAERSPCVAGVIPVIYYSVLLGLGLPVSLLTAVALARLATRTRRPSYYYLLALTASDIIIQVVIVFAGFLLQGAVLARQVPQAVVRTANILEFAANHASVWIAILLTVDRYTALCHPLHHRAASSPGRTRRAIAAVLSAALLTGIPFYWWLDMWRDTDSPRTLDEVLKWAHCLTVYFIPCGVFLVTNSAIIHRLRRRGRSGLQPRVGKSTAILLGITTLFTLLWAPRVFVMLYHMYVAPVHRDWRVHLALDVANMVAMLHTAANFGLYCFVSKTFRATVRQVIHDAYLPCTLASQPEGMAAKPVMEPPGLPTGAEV
Description: (§1) The purpose of this assay is to detect GPR142 agonist effect.
(§2) HEK293 cells expressing human GPR142 or mouse GPR142 are maintained in Dulbecco's modified Eagle's medium supplemented with 10% FBS and 800 μg/ml G418 (Geneticin®) at 37° C. and 5% CO2. The cells are plated in 384 well plates at 5000 cells per well and allowed 18 hours for attachment. After addition of compounds at varying concentrations ranging from 30 μM to 1 nM, cells are incubated for 1 hour. IP-1 measurements are performed using an IP-One HTRF® assay kit (Cisbio) according to manufacturer's protocol using assay buffer containing 1×HBSS (+Ca, +Mg), 0.1% BSA, 50 mM LiCl and 20 mM HEPES, pH 7.2. The reaction is stopped by addition of IP1-d2 (IP-1 coupled to an organic HTRF acceptor) followed by cryptate solution (http://www.htrf.com/usa/htrf-chemistry) and the plates are incubated at 25° C. for 1 hour. Fluorescence is read in an Envision instrument at 665 nm and 620 nm wavelength. The ratio of 665 nm/620 nm is calculated and converted to IP-1 levels using an IP-1 standard curve. The data is fit to a 4 parameter-fit logistics to determine EC50 values.

[2] = target: T2, mouse GPR142 (Mus musculus, UniProt Q7TQN9); experiment: GPR142 agonist effect as measured by IP-1 assay (HTRF), mouse GPR142; format: cell-based; conditions: HEK293 cells expressing mouse GPR142, IP-1; Mean±SEM, n=5; read-out: EC50 against mouse GPR142 receptor
T2 construct: expressed in transfected cells; host or cells: HEK293 (G418-selected)
T2 sequence (Q7TQN9 1-365): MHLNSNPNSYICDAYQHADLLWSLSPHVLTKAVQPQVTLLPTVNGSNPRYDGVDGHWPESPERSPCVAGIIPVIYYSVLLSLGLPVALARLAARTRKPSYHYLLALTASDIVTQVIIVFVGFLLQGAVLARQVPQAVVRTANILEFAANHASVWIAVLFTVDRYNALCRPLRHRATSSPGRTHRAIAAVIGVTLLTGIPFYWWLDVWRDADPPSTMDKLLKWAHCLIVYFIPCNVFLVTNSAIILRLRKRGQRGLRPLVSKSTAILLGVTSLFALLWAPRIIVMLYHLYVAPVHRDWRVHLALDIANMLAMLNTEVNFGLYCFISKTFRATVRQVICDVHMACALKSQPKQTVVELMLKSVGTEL
Description: as §1, §2

[3] = target: T3, GPR142 (Mus musculus, UniProt Q7TQN9); experiment: Intraperitoneal glucose tolerance test (IPGTT); format: in vivo; conditions: lean C57BL/6 mice, oral dosing 30 min before glucose challenge
T3 construct: from tissue; host or cells: whole animal, male C57BL/6 mice
T3 sequence (Q7TQN9 1-365): T2 sequence (Q7TQN9 1-365)
Description: IPGTT assay is used to examine the ability of exemplified compounds to activate GPR142 in vivo resulting in anti-diabetic efficacy, i.e. reduction in plasma glucose levels. Male C57BL/6 mice (8-10 weeks of age) are fed normal rodent chow diet and water ad libitum. On the night before the study, animals are fasted overnight in clean cages. On the morning of the study, animals are dosed orally with vehicle or compound at the indicated doses 30 minutes prior to the glucose challenge (2 g/kg) by intraperitoneal injection. Blood glucose levels are determined from tail bleeds taken immediately prior to compound dosing (−30 min) and 0, 15, 30, and 60 min after glucose challenge using handheld glucometers. Plasma is isolated from tail bleeds taken at 7 minutes after glucose challenge and used to determine insulin levels by the Rat/Mouse Insulin Elisa kit (Millipore) or MA6000 Mouse/Rat Insulin Kit (MSD). The blood glucose profile from t=0 to t=60 min is used to calculate an area under the curve (AUC) for each treatment. Percent lowering in glucose AUC is calculated for each treatment group with respect to the AUC of vehicle group. Compounds with a reduction in glucose AUC (P<0.05) is considered positive in the assay.

- efficacy against human GPR142 receptor [1]: 105%
- pEC50 ([1]; read-out: EC50 against human GPR142 receptor): 7.28
- pEC50 [2]: 8.26
Structure (SMILES): Cc1ncn(C)c1NC(=O)[C@@H]1CCC[C@H](N(C)C(=O)c2cccc(C(F)(F)F)c2)C1 (single isomer, unassigned; isomer 1) [Example 1, Cis-(chiral)-N-[3-[(3,5-Dimethylimidazol-4-yl)carbamoyl]cyclohexyl]-N-methyl-3-(trifluoromethyl)benzamide, isomer 1]
- ED50 in IPGTT [3]: 4.2 mpk
